As usually defined, the CL/F is the apparent clearance, not corrected for the fraction that reaches the circulation. As a reminder, the AUC is the area under the concentration-time curve, a measure of exposure.

SMILES strings stand for the structures.

These results are taken from US12303497B2, “Anti-androgens for the treatment of metastatic castration-sensitive prostate cancer” (priority 2019, dated 2025).

The target of one data set is CYP2C19 (Homo sapiens, UniProt P33261). The data set is described as follows: In vitro CYP inhibition.
CYP2C19, sequence (P33261 whole entry): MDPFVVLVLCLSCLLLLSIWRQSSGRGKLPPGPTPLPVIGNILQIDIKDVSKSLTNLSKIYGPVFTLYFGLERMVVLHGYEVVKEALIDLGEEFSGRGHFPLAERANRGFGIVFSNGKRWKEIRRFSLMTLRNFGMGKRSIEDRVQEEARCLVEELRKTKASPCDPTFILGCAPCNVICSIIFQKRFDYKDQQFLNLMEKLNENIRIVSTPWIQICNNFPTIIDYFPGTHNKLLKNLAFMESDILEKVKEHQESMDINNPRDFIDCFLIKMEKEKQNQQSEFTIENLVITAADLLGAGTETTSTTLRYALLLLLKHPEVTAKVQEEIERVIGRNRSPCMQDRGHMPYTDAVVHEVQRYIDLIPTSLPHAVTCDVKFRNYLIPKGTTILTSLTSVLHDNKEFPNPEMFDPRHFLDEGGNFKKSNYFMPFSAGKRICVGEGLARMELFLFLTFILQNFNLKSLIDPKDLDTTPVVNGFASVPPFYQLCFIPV
A further data set deals with CYP1A2 (Homo sapiens, UniProt P05177). The data set is described as follows: In vitro effect on CYP. The conditions noted are these: therapeutically relevant concentrations.
CYP1A2, sequence (P05177 whole entry): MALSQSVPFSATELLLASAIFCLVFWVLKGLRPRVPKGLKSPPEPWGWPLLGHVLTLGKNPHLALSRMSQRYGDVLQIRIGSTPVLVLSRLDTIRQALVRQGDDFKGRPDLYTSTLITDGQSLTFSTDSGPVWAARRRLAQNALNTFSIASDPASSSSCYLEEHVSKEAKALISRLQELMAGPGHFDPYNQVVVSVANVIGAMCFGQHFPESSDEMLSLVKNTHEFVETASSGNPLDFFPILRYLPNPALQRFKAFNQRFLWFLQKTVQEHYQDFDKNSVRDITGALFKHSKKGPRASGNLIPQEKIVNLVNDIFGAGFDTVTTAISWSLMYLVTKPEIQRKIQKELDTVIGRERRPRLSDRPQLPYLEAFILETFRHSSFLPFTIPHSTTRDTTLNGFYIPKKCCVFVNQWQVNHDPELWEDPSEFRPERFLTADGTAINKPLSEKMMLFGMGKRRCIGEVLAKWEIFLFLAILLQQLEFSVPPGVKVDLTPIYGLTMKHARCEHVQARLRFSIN
Data set [1] is described as follows: Single oral administration of radiolabeled apalutamide (AUC share, excretion). Format: in vivo.
A further data set deals with CYP2B6 (Homo sapiens, UniProt P20813). Kind of data set: In vitro CYP inhibition.
CYP2B6, sequence (P20813 whole entry): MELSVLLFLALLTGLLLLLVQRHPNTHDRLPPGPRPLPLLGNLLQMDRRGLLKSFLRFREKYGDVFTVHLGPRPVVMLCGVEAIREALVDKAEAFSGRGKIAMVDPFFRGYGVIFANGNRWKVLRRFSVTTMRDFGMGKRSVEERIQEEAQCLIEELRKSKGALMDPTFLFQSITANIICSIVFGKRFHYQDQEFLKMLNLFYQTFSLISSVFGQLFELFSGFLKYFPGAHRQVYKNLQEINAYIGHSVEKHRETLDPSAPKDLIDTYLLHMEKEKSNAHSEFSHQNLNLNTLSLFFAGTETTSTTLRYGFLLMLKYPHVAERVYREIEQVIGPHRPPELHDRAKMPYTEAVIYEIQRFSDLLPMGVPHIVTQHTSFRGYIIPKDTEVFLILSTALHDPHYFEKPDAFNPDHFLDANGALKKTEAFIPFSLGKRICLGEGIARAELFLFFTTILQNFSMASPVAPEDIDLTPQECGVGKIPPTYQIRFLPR
Data set [2] can be described thus: Clinical pharmacokinetics of apalutamide and N-desmethyl apalutamide.
Data set [3] concerns the target organic anion transporter 3 (OAT3) (Homo sapiens, UniProt Q8TCC7). Kind of data set: In vitro transporter inhibition.
A short description of data set [4]: Solubility in aqueous media. The conditions noted are these: aqueous media over a wide range of pH values. Format: physicochemical. An excerpt: The chemical name is (4-[7-(6-Cyano-5-trifluoromethylpyridin-3-yl)-8-oxo-6-thioxo-5,7-diazaspiro[3.4]oct-5-yl]-2-fluoro-N-methylbenzamide). Apalutamide is a white to slightly yellow powder.
Data set [5] in a line: Leuprolide PK sub-study in mCSPC subjects receiving leuprolide acetate. Format: in vivo, human. An excerpt:
Optional PK samples were/will be collected from at least 60 consenting subjects (in selected countries) who received or will receive leuprolide acetate as the GnRHa at the time of randomization. Samples were/will be collected on Day 1 of Cycles 1, 3, 4, 5, and 6 for analysis of leuprolide and testosterone concentrations.
Descriptive statistics of leuprolide PK data will be summarized by treatment groups (with apalutamide or placebo) and dose of leuprolide acetate. […] The percentage of subjects with testosterone levels <50 ng/dL will be summarized descriptively by treatment groups.

The target in data set [6] is organic cation transporter 2 (OCT2) (Homo sapiens, UniProt O15244). Kind of data set: In vitro transporter inhibition.
organic cation transporter 2 (OCT2), sequence (O15244 whole entry): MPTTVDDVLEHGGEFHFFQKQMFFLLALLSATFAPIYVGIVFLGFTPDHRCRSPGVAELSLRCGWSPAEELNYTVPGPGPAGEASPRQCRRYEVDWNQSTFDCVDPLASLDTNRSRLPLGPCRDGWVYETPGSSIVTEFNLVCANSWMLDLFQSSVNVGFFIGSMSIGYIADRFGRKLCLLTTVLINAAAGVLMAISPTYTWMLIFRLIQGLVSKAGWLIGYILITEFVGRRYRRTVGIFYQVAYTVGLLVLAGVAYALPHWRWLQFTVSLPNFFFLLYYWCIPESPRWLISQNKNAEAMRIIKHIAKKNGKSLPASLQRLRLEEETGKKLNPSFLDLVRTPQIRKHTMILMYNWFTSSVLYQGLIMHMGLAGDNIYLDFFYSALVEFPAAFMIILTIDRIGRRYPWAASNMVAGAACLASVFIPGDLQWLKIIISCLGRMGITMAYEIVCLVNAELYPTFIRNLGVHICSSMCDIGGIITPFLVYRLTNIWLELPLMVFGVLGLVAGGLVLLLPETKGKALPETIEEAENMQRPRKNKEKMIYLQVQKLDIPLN
Data set [7] concerns the target organic anion transporter 1 (Homo sapiens, UniProt Q4U2R8). The data set is described as follows: In vitro transporter inhibition.
Where [8] appears, read: up to 70 days after single oral radiolabeled dose.

organic anion transporter 1, sequence (Q4U2R8 whole entry): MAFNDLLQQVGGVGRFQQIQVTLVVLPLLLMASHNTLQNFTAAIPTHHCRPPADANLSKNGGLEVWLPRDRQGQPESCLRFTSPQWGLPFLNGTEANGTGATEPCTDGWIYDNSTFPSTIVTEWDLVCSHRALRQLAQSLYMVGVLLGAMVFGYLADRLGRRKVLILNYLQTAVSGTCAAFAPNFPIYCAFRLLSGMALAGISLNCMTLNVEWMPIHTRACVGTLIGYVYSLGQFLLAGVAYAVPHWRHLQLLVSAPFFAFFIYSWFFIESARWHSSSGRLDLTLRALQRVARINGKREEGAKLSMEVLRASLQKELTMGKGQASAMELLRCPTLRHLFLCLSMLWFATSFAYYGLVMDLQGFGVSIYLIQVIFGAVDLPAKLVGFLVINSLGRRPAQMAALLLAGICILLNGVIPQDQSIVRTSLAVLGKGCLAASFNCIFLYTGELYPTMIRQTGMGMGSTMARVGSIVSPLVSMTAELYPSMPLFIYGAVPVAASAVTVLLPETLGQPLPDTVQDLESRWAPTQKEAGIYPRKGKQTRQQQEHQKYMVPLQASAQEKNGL
organic anion transporter 3 (OAT3), sequence (Q8TCC7 whole entry): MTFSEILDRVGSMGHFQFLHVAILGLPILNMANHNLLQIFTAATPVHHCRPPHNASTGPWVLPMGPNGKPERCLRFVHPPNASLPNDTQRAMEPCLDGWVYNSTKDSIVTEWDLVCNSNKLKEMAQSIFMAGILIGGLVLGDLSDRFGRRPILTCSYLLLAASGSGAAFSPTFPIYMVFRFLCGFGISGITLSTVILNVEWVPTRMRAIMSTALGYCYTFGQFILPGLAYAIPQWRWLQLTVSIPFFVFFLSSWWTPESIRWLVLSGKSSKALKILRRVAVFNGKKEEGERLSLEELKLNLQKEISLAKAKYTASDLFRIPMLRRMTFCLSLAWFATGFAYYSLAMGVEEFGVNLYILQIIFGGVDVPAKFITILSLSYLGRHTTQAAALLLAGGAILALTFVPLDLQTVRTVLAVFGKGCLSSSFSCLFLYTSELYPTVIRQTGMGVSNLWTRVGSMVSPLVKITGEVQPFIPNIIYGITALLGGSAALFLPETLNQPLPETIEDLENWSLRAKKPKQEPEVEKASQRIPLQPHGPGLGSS

For the compound `CNC(=O)c1ccc(N2C(=S)N(c3cnc(C#N)c(C(F)(F)F)c3)C(=O)C23CCC3)cc1F` [Apalutamide, 4-[7-(6-cyano-5-trifluoromethylpyridin-3-yl)-8-oxo-6-thioxo-5,7-diazaspiro[3.4]oct-5-yl]-2-fluoro-N-methylbenzamide], the CYP2C19 inhibition entry on CYP2C19 was “weak inhibitors”. Also, on CYP1A2, the “Effect on CYP1A2” value is on record as “do not affect”. Also, the “Share of the total AUC” value in data set [1] (single oral radiolabeled apalutamide 240 mg) stood at 45%. Also, in data set [1] (setting [8]), the “Dose recovered in feces” value is given as 24%, the “Dose recovered in feces as this compound” value is recorded as 1.5%, the “Dose recovered in urine” value came to 65% and the “Dose recovered in urine as this compound” value is listed as 1.2%. The CYP2B6 inhibition result at CYP2B6 was “moderate inhibitors”. This compound had a CL/F in data set [2] (after single dosing) of 1.3 L/h. For the same compound, in [2] (age 18-94 years, race, mild to moderate renal impairment, mild to moderate hepatic impairment), the “Pharmacokinetics in specific populations” value is “No clinically significant differences”. The CL/F in [2] (at steady-state after once-daily dosing) worked out at 2.0 L/h. In [2] (human, in vivo), the “Mean apparent volume of distribution at steady-state” value was “approximately 276 L”. Further, the “Median time to achieve peak plasma concentration (tmax)” value in data set [2] (range: 1 to 5 hours) was found to be 2 h. The Time to steady-state in data set [2] (recommended dosage (240 mg once daily)) amounted to 4 weeks. In addition, in data set [2] (recommended dosage, SD 32 (apalutamide), 23 (N-desmethyl apalutamide)), the “AUC at steady-state, mean” value turned out to be 100 µg·h/mL. In addition, the “Dose dependence of Cmax and AUC” value in data set [2] (repeated once-daily dosing of 30 to 480 mg) is listed as “increased proportionally”. In addition, the “Inhibition of OAT3” value in data set [3] was “inhibit”. The Solubility result in data set [4] is reported as “practically insoluble”. In data set [5], the “Effect on the steady-state exposure of leuprolide” value is on record as “no apparent effect”. Also, in data set [6], the “Inhibition of OCT2” value is reported as “inhibit”. Moreover, the “Inhibition of organic anion transporter 1” value in data set [7] is on record as “do not inhibit”.
